Laboratory results taken from US20250186405A1, “Compound For Use In Treating Narcolepsy” (Alkermes, Inc., priority 2023, published 2025).

Tested on: subjects with narcolepsy type-2 (NT2)
Test: Part 5 POC NT2: treatment-emergent adverse events, single doses, crossover
[1] = Total (any Compound A dose), N = 9

Description: Part 5 consisted of a 4-way, 4-period crossover study design in approximately 8 subjects (2 subjects per sequence; minimum of 4 subjects with 1 subject per sequence). Subjects were randomized 1:1:1:1 to 1 of 4 sequences with 4 treatment periods (3 single doses of Compound A and 1 dose of matching placebo), with up to 48 hours of washout between treatments. Treatments were administered under fasted state.
Subjects were randomized to 1 of 4 sequences. […] In each period, subjects were administered a single dose of study drug (either Compound A or placebo) as per the randomization schedule with approximately 240 mL of noncarbonated water following overnight fasting. No food was given for at least 3 hours after dose administration (i.e., fast can be broken after the 3-hour PK time point is collected). Water was allowed ad libitum except for 1 hour before and 1 hour after study drug administration. Safety assessments including AEs, safety ECGs, vital signs, and clinical laboratory tests were conducted, and plasma PK samples were collected. Furthermore, BP and HR were monitored once every hour for 12 hours on the dosing days.
Adverse events (AEs) and serious adverse events (SAEs) were monitored continuously until the completion of the study.
Nine subjects with NT2 were dosed in Part 5 (POC in NT2) in a randomized 4-sequence 4-period cross-over design. Each dose of Compound A or matching placebo was separated by 2 days. A 14-day washout period preceded the treatment period and included discontinuation of narcolepsy medications. All 9 subjects underwent the washout period and received at least one dose of Compound A. All subjects completed all 4-way randomized crossover periods.

## CS(=O)(=O)N[C@H]1CCCN2C(=O)COc3ccccc3C3CCC(CC3)OCC12 (stereo partly drawn) [Compound A, N-[(4S,4aR,7α,10α)-1,2,3,4,4a,5,7,8,9,10,16,17-dodecahydro-17-oxo-7,10-ethanopyrido[1,2-d][1,7,4]benzodioxaazacyclotridecin-4-yl]methanesulfonamide]
25 mg single dose, N = 9
  Any SAEs: 0 n (%)
  Any TEAE: 7 (77.8) n (%)
  Death: 0 n (%)
  Drug Related TEAE by Preferred Term: Altered state of consciousness: 0 n (%)
  Drug Related TEAE by Preferred Term: Dizziness: 2 (22.2) n (%)
  Drug Related TEAE by Preferred Term: Dizziness postural: 1 (11.1) n (%)
  Drug Related TEAE by Preferred Term: Feeling jittery: 1 (11.1) n (%)
  Drug Related TEAE by Preferred Term: Headache: 1 (11.1) n (%)
  Drug Related TEAE by Preferred Term: Initial insomnia: 0 n (%)
  Drug Related TEAE by Preferred Term: Insomnia: 2 (22.2) n (%)
  Drug Related TEAE by Preferred Term: Photophobia: 1 (11.1) n (%)
  Drug Related TEAE by Preferred Term: Pollakiuria: 3 (33.3) n (%)
  Drug Related TEAE by Preferred Term: Tachycardia: 0 n (%)
  Drug Related TEAE by Preferred Term: Urinary incontinence: 1 (11.1) n (%)
  Subjects with at least one TEAE: 7 (77.8) n (%)
  Subjects with at least one treatment-related TEAE: 6 (66.7) n (%)
  TEAE by Highest Relationship: Not Related: 1 (11.1) n (%)
  TEAE by Highest Relationship: Related: 6 (66.7) n (%)
  TEAE by Highest Severity: Mild: 6 (66.7) n (%)
  TEAE by Highest Severity: Moderate: 1 (11.1) n (%)
  TEAE by Highest Severity: Severe: 0 n (%)
  TEAE by Preferred Term: Altered state of consciousness: 0 n (%)
  TEAE by Preferred Term: Constipation: 0 n (%)
  TEAE by Preferred Term: Contusion: 1 (11.1) n (%)
  TEAE by Preferred Term: Dizziness: 2 (22.2) n (%)
  TEAE by Preferred Term: Dizziness postural: 1 (11.1) n (%)
  TEAE by Preferred Term: Dry skin: 0 n (%)
  TEAE by Preferred Term: Feeling jittery: 1 (11.1) n (%)
  TEAE by Preferred Term: Headache: 1 (11.1) n (%)
  TEAE by Preferred Term: Initial insomnia: 0 n (%)
  TEAE by Preferred Term: Insomnia: 2 (22.2) n (%)
  TEAE by Preferred Term: Nasal dryness: 1 (11.1) n (%)
  TEAE by Preferred Term: Nausea: 0 n (%)
  TEAE by Preferred Term: Photophobia: 1 (11.1) n (%)
  TEAE by Preferred Term: Pollakiuria: 3 (33.3) n (%)
  TEAE by Preferred Term: Rash: 0 n (%)
  TEAE by Preferred Term: Skin lesion: 0 n (%)
  TEAE by Preferred Term: Tachycardia: 0 n (%)
  TEAE by Preferred Term: Urinary incontinence: 1 (11.1) n (%)
NT2, 5, 12 and 25 mg
  Tolerability: well tolerated
NT2, N = 9, all periods
  Subjects with at least one TEAE: 77.8%
[1]
  AE Leading to Study Drug Discontinuation: 0 n (%)
  Any SAEs: 0 n (%)
  Any TEAE: 7 (77.8) n (%)
  Death: 0 n (%)
  Drug Related TEAE by Preferred Term: Altered state of consciousness: 0 n (%)
  Drug Related TEAE by Preferred Term: Dizziness: 2 (22.2) n (%)
  Drug Related TEAE by Preferred Term: Dizziness postural: 1 (11.1) n (%)
  Drug Related TEAE by Preferred Term: Feeling jittery: 1 (11.1) n (%)
  Drug Related TEAE by Preferred Term: Headache: 1 (11.1) n (%)
  Drug Related TEAE by Preferred Term: Initial insomnia: 1 (11.1) n (%)
  Drug Related TEAE by Preferred Term: Insomnia: 2 (22.2) n (%)
  Drug Related TEAE by Preferred Term: Photophobia: 1 (11.1) n (%)
  Drug Related TEAE by Preferred Term: Pollakiuria: 3 (33.3) n (%)
  Drug Related TEAE by Preferred Term: Tachycardia: 0 n (%)
  Drug Related TEAE by Preferred Term: Urinary incontinence: 1 (11.1) n (%)
  Subjects with at least one TEAE: 7 (77.8) n (%)
  Subjects with at least one treatment-related TEAE: 6 (66.7) n (%)
  TEAE by Highest Relationship: Not Related: 1 (11.1) n (%)
  TEAE by Highest Relationship: Related: 6 (66.7) n (%)
  TEAE by Highest Severity: Mild: 6 (66.7) n (%)
  TEAE by Highest Severity: Moderate: 1 (11.1) n (%)
  TEAE by Highest Severity: Severe: 0 n (%)
  TEAE by Preferred Term: Altered state of consciousness: 0 n (%)
  TEAE by Preferred Term: Constipation: 1 (11.1) n (%)
  TEAE by Preferred Term: Contusion: 1 (11.1) n (%)
  TEAE by Preferred Term: Dizziness: 2 (22.2) n (%)
  TEAE by Preferred Term: Dizziness postural: 1 (11.1) n (%)
  TEAE by Preferred Term: Dry skin: 1 (11.1) n (%)
  TEAE by Preferred Term: Feeling jittery: 1 (11.1) n (%)
  TEAE by Preferred Term: Headache: 1 (11.1) n (%)
  TEAE by Preferred Term: Initial insomnia: 1 (11.1) n (%)
  TEAE by Preferred Term: Insomnia: 2 (22.2) n (%)
  TEAE by Preferred Term: Nasal dryness: 1 (11.1) n (%)
  TEAE by Preferred Term: Nausea: 1 (11.1) n (%)
  TEAE by Preferred Term: Photophobia: 1 (11.1) n (%)
  TEAE by Preferred Term: Pollakiuria: 3 (33.3) n (%)
  TEAE by Preferred Term: Rash: 1 (11.1) n (%)
  TEAE by Preferred Term: Skin lesion: 1 (11.1) n (%)
  TEAE by Preferred Term: Tachycardia: 0 n (%)
  TEAE by Preferred Term: Urinary incontinence: 1 (11.1) n (%)
